Among the data in ChEMBL document CHEMBL1137233, “Synthesis and cardiac effects of 3,4-dihydropyrimidin-2(1H)-one-5 carboxylates” (Bioorg Med Chem Lett, 2006) are Activity values, retold here.

Active and inactive are the calls of the source. No cut-off for these calls is given here.

Holding throughout (format): functional
The subject of experiment [1] is Riparian frogs. The experiment can be described thus: Effect on rate of contraction in isolated perfused frog heart. To be noted: Hoplobatrachus tigerinus.
The test system of experiment [2] is Riparian frogs. The experiment can be described thus: Effect on force of contraction in isolated perfused frog heart. To be noted: Hoplobatrachus tigerinus.
For experiment [3], the system named is Riparian frogs. The experiment can be described thus: Effect on cardiac output in isolated perfused frog heart. Conditions: Ranidae.
Experiment [4] addresses Adrenergic receptor beta (Homo sapiens) (UniProt P08588+P07550+P13945). Briefly: Antagonist activity at adrenergic beta receptor assessed as inhibition of adrenalin effect.
Experiment [5] concerns Riparian frogs. The experiment can be described thus: Negative inotropic action in isolated perfused frog heart. To be noted: Hoplobatrachus tigerinus.
The subject of experiment [6] is Riparian frogs. The experiment can be described thus: Decrease in cardiac output in isolated perfused frog heart. Conditions: Hoplobatrachus tigerinus.
Experiment [7] relates to Riparian frogs. Briefly: Negative chronotropic action measured as decrease in rate of contraction in isolated perfused frog heart. To be noted: Hoplobatrachus tigerinus.
The test system of experiment [8] is Riparian frogs. The experiment can be described thus: Positive inotropic action measured as increase in force of contraction in isolated perfused frog heart. To be noted: Hoplobatrachus tigerinus.
Experiment [9] relates to Riparian frogs. Briefly: Increase in cardiac output in isolated perfused frog heart. To be noted: Hoplobatrachus tigerinus.
Experiment [10] deals with Riparian frogs. Briefly: Increase in cardiac output in isolated perfused frog heart at 1 mg/ml. Conditions: Hoplobatrachus tigerinus.
For experiment [11], the system named is Riparian frogs. Briefly: Positive inotropic action measured as increase in force of contraction in isolated perfused frog heart at 500 ug/ml. Conditions: Hoplobatrachus tigerinus.
The test system of experiment [12] is Riparian frogs. The experiment can be described thus: Positive inotropic action measured as increase in force of contraction in isolated perfused frog heart at 1 mg/ml. To be noted: Hoplobatrachus tigerinus.
Experiment [13] has as its system Riparian frogs. Briefly: Increase in cardiac output in isolated perfused frog heart at 500 ug/ml. Conditions: Hoplobatrachus tigerinus.

For the molecule `CCOC(=O)C1=C(C)NC(=O)NC1c1ccccc1[N+](=O)[O-]` (stereo not given), the outcome with Riparian frogs [1], in the experiment with Riparian frogs [2] and in the experiment on Riparian frogs [3] was inactive.

In the case of `CCOC(=O)C1=C(C)NC(=O)NC1c1ccccc1Cl` (stereo not given), the result (in [4]; in the experiment with Riparian frogs [5]; in the experiment with Riparian frogs [6]; in the experiment on Riparian frogs [7]) was Active.

For `CCOC(=O)C1=C(C)NC(=O)NC1c1ccc(O)cc1` (stereo not given), the Activity result with Riparian frogs [8] and in the experiment with Riparian frogs [7] was “Dose-dependent effect” throughout. Besides, the result with Riparian frogs [9] was Active.

As for `CCOC(=O)C1=C(C)NC(=O)NC1c1ccc(-c2ccccc2)cc1` (stereo not given), the outcome in the experiment with Riparian frogs [10], with Riparian frogs [11], with Riparian frogs [12] and in the experiment on Riparian frogs [13] was Active.

`CCOC(=O)C1=C(C)NC(=O)NC1c1ccc(OC)cc1` (stereo not given): the outcome in the experiment with Riparian frogs [8], in the experiment on Riparian frogs [9] and with Riparian frogs [7] was Active.

As for `COC(=O)C1=C(C)NC(=O)NC1c1ccccc1Cl` (stereo not given), the result (in experiment [4]; in the experiment on Riparian frogs [5]; with Riparian frogs [6]; in the experiment on Riparian frogs [7]) was Active.

On to `CCOC(=O)C1=C(C)NC(=O)NC1c1cccc(O)c1` (stereo not given), for which the Activity entry in the experiment with Riparian frogs [8] and in the experiment with Riparian frogs [7] was “Dose-dependent effect” throughout. Besides, the outcome in the experiment on Riparian frogs [9] was Active.

For the molecule `CC1=C(C(=O)Oc2ccccc2)C(c2cccc(O)c2)NC(=O)N1` (stereo not given), the Activity result with Riparian frogs [8] and in the experiment with Riparian frogs [7] was “Dose-dependent effect” each time. The outcome in the experiment with Riparian frogs [9] was Active.

Regarding `CCOC(=O)C1=C(C)NC(=O)NC1C(C)C` (stereo not given), the Activity result with Riparian frogs [8] and in the experiment with Riparian frogs [7] was “Dose-dependent effect” in each case. Besides, in the experiment with Riparian frogs [9], the outcome was Active.
